Test results published in US6787546B2, “Heterocycle derivatives and drugs” (Nippon Shinyaku Co., Ltd., priority 1999, dated 2004).
≈ marks a conversion by molar mass, not a printed value. Read-outs that look alike come from different tables or passages of the source.

Tests used:
Solubility in water = type: physicochemical
Description: The water solubility of the compound of the present invention was measured at 25° C. As the control compounds, (E)-4-(2-(2-(N-(4-methoxybenzenesulfonyl)amino)-phenyl)ethenyl)pyridine 1-oxide (Compound A) and (E)-4-(2-(2-(N-acetyl-N-(4-methoxy-benzenesulfonyl)amino)phenyl)ethenyl)pyridine 1-oxide (Compound B) were used.

[1] = test system: Colon-26 (Mouse Colon Cancer) Cells; test: Anticancer activity against Colon-26 cells transplanted in mice; type: in vivo; conditions: day 21; for Tumor growth inhibition rate (%): 5 times at intervals of 4 days; for Number of Survival: 6 animals/group
Description: Anticancer Activity Against Colon-26 (Mouse Colon Cancer) Cells Transplanted in Mice
Colon-26 cells cultured in vitro were transplanted subcutaneously with an injection syringe in the right axillary region of Balb/c 5-week-old male mice (5×10^5 cells/animal). The mice were divided into groups of 6 animals/group when the tumor volume had reached about 120 mm^3 (Experiment 1) or about 100 mm^3 (Experiment 2). The test drug dissolved in 5% glucose solution was administered intravenously 5 times in total once daily at intervals of 4 days. The mice of control group were treated in the same manner with 5% glucose solution. The tumor volume was calculated according to the Equation 1 below on the basis of the major and minor axes of the tumor measured at a given interval with vernier calipers. [formula]
The growth rate was then calculated according to the Equation 2 based on the tumor volume, which was then applied to the Equation 3 for the calculation of the growth inhibition rate in drug-treatment group relative to the control group. [formula]
The tumor growth inhibition rate and the number of survivals at day 21 after initiation of the administration are shown in Table 1.

[2] = Experiment 1 (tumor about 120 mm^3 at start), 50 mg/kg i.v.
[3] = Experiment 1, dose not printed (second dose line of Example 5), i.v.
[4] = Experiment 1 (tumor about 120 mm^3 at start), 75 mg/kg i.v.
[5] = Experiment 2 (tumor about 100 mm^3 at start), 50 mg/kg i.v.
[6] = Experiment 2 (tumor about 100 mm^3 at start), 75 mg/kg i.v.

SMILES: COc1ccc(S(=O)(=O)N(C(=O)CN)c2ccccc2/C=C/c2cc[n+]([O-])cc2)cc1.Cl
- melting point: 235 to 237 °C

SMILES: COc1ccc(S(=O)(=O)N(C(=O)CN2CCN(c3cccnc3)CC2)c2ccccc2/C=C/c2cc[n+]([O-])cc2)cc1.Cl.Cl
- melting point: 167 °C (dec.)

SMILES: COc1ccc(S(=O)(=O)N(C(=O)c2ccncc2)c2ccccc2/C=C/c2cc[n+]([O-])cc2)cc1.Cl.Cl
- melting point: 198 to 200 °C

SMILES: COc1ccc(S(=O)(=O)N(C(=O)c2cccnc2)c2ccccc2/C=C/c2cc[n+]([O-])cc2)cc1.Cl.Cl
- melting point: 187 to 189 °C

SMILES: COc1ccc(S(=O)(=O)Nc2ccccc2/C=C/c2cc[n+]([O-])cc2)cc1 [Compound A, (E)-4-(2-(2-(N-(4-methoxybenzenesulfonyl)amino)-phenyl)ethenyl)pyridine 1-oxide]
- solubility (Solubility in water; 25 °C): 29 µg/mL (≈ 75.8 µM)

SMILES: COc1ccc(S(=O)(=O)N(C(C)=O)c2ccccc2/C=C/c2cc[n+]([O-])cc2)cc1 [Compound B, (E)-4-(2-(2-(N-acetyl-N-(4-methoxy-benzenesulfonyl)amino)phenyl)ethenyl)pyridine 1-oxide]
- solubility (Solubility in water; 25° C., control compounds, read-out: water solubility): 18 µg/mL (≈ 42.4 µM)

SMILES: COc1ccc(S(=O)(=O)N(C(=O)CN2CCCCC2)c2ccccc2/C=C/c2cc[n+]([O-])cc2)cc1.Cl [Example 5, (E)-4-(2-(2-(N-(4-Methoxybenzenesulfonyl)-N-piperidinoacetyl-amino)phenyl)ethenyl)pyridine 1-oxide hydrochloride]
- Tumor growth inhibition rate (%) [1, 2]: 78.0%
- Number of Survival ([1]; Experiment 1, 50 mg/kg i.v.): 6/6
- Tumor growth inhibition rate (%) [1, 3]: 87.7%
- Number of Survival [1, 3]: 6/6

SMILES: COc1ccc(S(=O)(=O)N(C(=O)CN(C)C)c2ccccc2/C=C/c2cc[n+]([O-])cc2)cc1.Cl [Example 8, (E)-4-(2-(2-(N-(N,N-Dimethylglycyl)-N-(4-methoxybenzenesulfonyl) -amino)phenyl)ethenyl)pyridine 1-oxide hydrochloride]
- Tumor growth inhibition rate (%) [1, 2]: 87.0%
- Tumor growth inhibition rate (%) [1, 4]: 95.9%
- Number of Survival ([1]; Experiment 1, 50 mg/kg i.v.): 5/6
- Number of Survival ([1]; Experiment 1, 75 mg/kg i.v.): 5/6

SMILES: COc1ccc(S(=O)(=O)N(C(=O)CN2CCN(c3ccccn3)CC2)c2ccccc2/C=C/c2cc[n+]([O-])cc2)cc1.Cl.Cl [Example 9, (E)-4-(2-(2-(N-(4-Methoxybenzenesulfonyl)-N-(4-(2-pyridyl)piperazino)acetylamino)phenyl)ethenyl)pyridine 1-oxide dihydrochloride]
- Tumor growth inhibition rate (%) [1, 2]: 80.8%
- Tumor growth inhibition rate (%) [1, 4]: 93.6%
- Number of Survival ([1]; Experiment 1, 50 mg/kg i.v.): 6/6
- Number of Survival ([1]; Experiment 1, 75 mg/kg i.v.): 5/6

SMILES: COc1ccc(S(=O)(=O)N(C(=O)CN2CCOCC2)c2ccccc2/C=C/c2cc[n+]([O-])cc2)cc1.Cl [Example 13, (E) -4-(2-(2-(N-(4-Methoxybenzenesulfonyl)-N-morpholinoacetyl-amino)phenyl)ethenyl)pyridine 1-oxide hydrochloride]
- Tumor growth inhibition rate (%) [1, 5]: 73.8%
- Tumor growth inhibition rate (%) [1, 6]: 92.6%
- Number of Survival ([1]; Experiment 2, 50 mg/kg i.v.): 6/6
- Number of Survival ([1]; Experiment 2, 75 mg/kg i.v.): 6/6

SMILES: COc1ccc(S(=O)(=O)N(C(=O)CN2CCCC2)c2ccccc2/C=C/c2cc[n+]([O-])cc2)cc1.Cl [Example 14, (E)-4-(2-(2-(N-(4-Methoxybenzenesulfonyl)-N-pyrrolidinoacetylamino) -phenyl)ethenyl)pyridine 1-oxide hydrochloride]
- Tumor growth inhibition rate (%) [1, 5]: 78.6%
- Tumor growth inhibition rate (%) [1, 6]: 84.1%
- Number of Survival ([1]; Experiment 2, 50 mg/kg i.v.): 6/6
- Number of Survival ([1]; Experiment 2, 75 mg/kg i.v.): 6/6
